Reference: patent US20230037188A1, “TASTEFUL NATURAL SWEETENER AND FLAVOR” (EPC Natural Products Co., Ltd., priority 2018, published 2023)
“Also recorded” adds a separate entry of the source.

Columns and labels:
[1] = Kinetics of reaction (degradation of Phe with Reb-A, Gluc, Xyl, Suc) in dependence of pH-conditions, HPLC/MS; assay type: physicochemical; settings: for % formation from degraded Reb-A: reaction of Phe and Reb-A
Procedure: Quantitative evaluation was performed using external standardization.

[2] = Sensory evaluation of combinations of EPCalin (Thaumatin), GSGs and SGs and NHDC in water; assay type: in vivo; settings: 4.5 ppm Thaumatin (10 ppm EPCalin) and/or 50 ppm GSGs and SGs, NHDC 1-5 ppm
Procedure: 4.5 ppm Thaumatin (equivalent to 10 ppm EPCalin) were dissolved in water. Increasing amounts of NHDC (1-5 ppm) were added to the solution and the sensory properties were evaluated.
50 ppm (GSGs and SGs) were dissolved in water. Increasing amounts of NHDC (1-5 ppm) were added to the solution and the sensory properties were evaluated.
50 ppm (GSGs and SGs) and 4.5 ppm Thaumatin (equivalent to 10 ppm EPCalin) were dissolved in water. Increasing amounts of NHDC (1-5 ppm) were added to the solution and the sensory properties were evaluated.
Sweetness intensity was rated on 5-point scale

[3] = Blind descriptive sensory evaluation by trained tasters of differently prepared Stevia-derived MRPs in beverages and ketchup; assay type: in vivo; settings: added before heating to xylose, phenylalanine and SGA; 150 μl sample per 100 ml
Procedure: Each sample was added at a concentration of 1500 ppm to freshly prepared lemon juice (squeezed lemons diluted 1:5 with tap water) containing 4% sugar.
Each sample was added at a concentration of 1000 ppm to Felix Ketchup no added sugar (31.12.2019 L8352, 11:48).
Before tasting the tasters discussed the upcoming series of samples and tasted samples with the predetermined attributes (sweetness) with varying intensities to find a common description. Four trained tasters blind taste tested independently all samples of a series. They were allowed to re-taste and prepared notes for sensory attributes perceived including the relative intensity.
In the last step the attributes noted were discussed openly to find an acceptable description. In case that more than 1 taster disagreed with the description, the tasting was repeated.
Before tasting the tasters discussed the upcoming series of samples and tasted samples with the predetermined attributes with varying intensities to find commonality for the description. Four trained tasters blind taste tested independently all samples of a series. They were allowed to re-taste and made notes for the sensory attributes perceived including the relative intensity.
In the last step the attributes noted were discussed openly to find an agreeable description. In case that more than 1 taster disagreed with thedescription, the tasting was repeated. […]

[4] = Assay to test DPPH radical-scavenging activity; settings: combinations of amino acids and Reb-A, 100° C., pH 7.8; iron-III reduction and radical scavenging (FIGS. 49, 50)
Procedure: 1 mg 1,1-Diphenyl-2-picrylhydrazyl radical (DPPH)/ml ethanol, dilution to assay concentration were prepared in ethanol (40 μg/mL); Calibration samples were prepared with Ascorbic acid in a concentration of 0-10 μg/mL; as a negative control sample, water was used.
Samples in aqueous solution were used as such or diluted with water.
A 0.1 ml sample (or calibration standard) was mixed with 3.9 ml solution of DPPH° (100 μMolar) and reacted while protected from light at room temperature for 30 min. Absorbance was determined at 517 nm against ethanol.
10 mM of amino acid and/or 10 mM sugar were dissolved in 10 ml 0.1 mM KH2PO4-buffer, pH=7.8.
The samples were kept at 100° C. in sealed glass vials (Pyrex 15 ml with screw caps) for 0 (before reaction), 2.5 or 5.0 hours. Thereafter the samples were transferred to an ice water bath and cooled down to room temperature. These samples were diluted 1:10 and used for the test assay for anti-oxidant potential.

Q: Which “% degradation” value ([1]; reaction of Phe and Gluc, pH = 7.0, 1.0 h, 120° C.) does the source give for `OC[C@H]1OC(O)[C@H](O)[C@@H](O)[C@@H]1O` (stereo partly shown) [Glu] here?
A: 4.6%

Q: With `COc1ccc(CCC(=O)c2c(O)cc(O[C@@H]3O[C@H](CO)[C@@H](O)[C@H](O)[C@H]3O[C@@H]3O[C@@H](C)[C@H](O)[C@@H](O)[C@H]3O)cc2O)cc1O` [NHDC, Neohesperidin dihydrochalcone] as the compound, how does the “sweetness, onset, mouth-feel and lingering in words” value [2] read?
A: long lasting lingering; also recorded: boosts the lingering

Q: And the “taste profile in Redbull sugar free” value [3]?
A: improved the mouth-feel and harmony of taste impression yielding a substantially improved taste profile

Q: With `C=C1C[C@@]23CC[C@H]4[C@@](C)(CCC[C@@]4(C)C(=O)O[C@@H]4O[C@H](CO)[C@@H](O)[C@H](O)[C@H]4O)[C@@H]2CC[C@]1(O[C@@H]1O[C@H](CO)[C@@H](O)[C@H](O[C@@H]2O[C@H](CO)[C@@H](O)[C@H](O)[C@H]2O)[C@H]1O[C@@H]1O[C@H](CO)[C@@H](O)[C@H](O)[C@H]1O)C3` [Reb-A, Rebaudioside A] as the compound, how does the anti-oxidant properties [4] read?
A: substantial anti-oxidant properties

Q: Which “% formation from degraded Reb-A” value ([1]; pH = 5.5) does the source give for `C=C1C[C@@]23CC[C@H]4[C@@](C)(CCC[C@@]4(C)C(=O)O)[C@@H]2CC[C@]1(O[C@@H]1O[C@H](CO)[C@@H](O)[C@H](O[C@@H]2O[C@H](CO)[C@@H](O)[C@H](O)[C@H]2O)[C@H]1O[C@@H]1O[C@H](CO)[C@@H](O)[C@H](O)[C@H]1O)C3` [Reb-B] here?
A: 23.1%

Q: What about the “% formation from degraded Reb-A” value ([1]; pH = 7.0) of the same compound?
A: 22.7%

Q: And the “% formation from degraded Reb-A” value ([1]; pH = 8.5)?
A: 19.1%
